Measurements published in patent US20090232848A1, “METHODS FOR CULTIVATING LAWSONIA INTRACELLULARIS” (priority 2004, published 2009).
Like-named read-outs stand apart in the source and are kept apart here.

How the values were obtained:
Type in all cases: cell-based, Lawsonia intracellularis
[1] = tested on: L. intracellularis swine isolate VP1; conditions: McCoy cells; for Monolayer infection by immunoperoxidase staining: day 5 or 6 post-infection
Protocol: L. intracellularis swine isolate VP1 (passage 17) was used to infect McCoy cells. McCoy cells were seeded in tissue culture flasks at 1.25×10^5 cells per 25 cm^2 flask, and 1.25×10^4 cells per Trac bottle (Bibby Sterilin Ltd.; Staffordshire, United Kingdom), in DMEM supplemented with 7% fetal bovine serum (FBS). The Trac bottle was used to monitor simulative infection in the flask. The flasks and Trac bottles were incubated overnight at 37° C. in a humidified incubator with 5% CO2. The following day, cells in both the flask and Trac bottle were infected with the L. intracellularis swine isolate (passage 17) in fresh DMEM with 7% FBS. After the addition of L. intracellularis, the flasks and Trac bottles were treated in three different ways. One flask and the corresponding Trac bottle were evacuated at 15 psi of Hg vacuum and purged with pure hydrogen. A second flask and the corresponding Trac bottle were neither evacuated nor purged with hydrogen, but instead received a supplement of cysteine hydrochloride (Sigma, C-7477; St. Louis, Mo.), β-NAD and phoshatidylcholine to a final concentration of 0.01%, 5 mM and 100 ng/ml, respectively, during the first two passages, and only cysteine hydrochlride (0.02% final concentration) during the later passages. The third flask and the corresponding Trac bottle were not evacuated or purged with hydrogen, nor received any supplements. All flasks and Trac bottles were incubated at 37° C. in an incubator containing 8.0 % O2 and 8.8% CO2 and 83.2% N2. On day 2 and 5 post-infection, 50% of the media from all flasks and Trac bottles was replaced with fresh DMEM with 5% FBS with or without cysteine hydrochloride, β-NAD and phoshatidylcholine.
On day 5 or 6 post-infection, the monolayers in the tissue culture flasks were monitored by immunoperoxidase staining of the corresponding Trac bottle cover slip. Briefly, the cover slip from the Trac bottle was removed and washed gently with Phosphate Buffered Saline (PBS), and bound to a microscope slide using a permanent glue. The cover slip then was fixed in acetone for 30 sec at room temperature. Rabbit anti-L. intracellularis polyclonal antibody, diluted 1:400 in PBS, was added to cover the entire cover slip, which was then incubated in a humidified environment at 37° C. for 30 min. The cover slip was washed gently with PBS and a 1:20 dilution of peroxidase-conjugated goat anti-rabbit IgG (H+L; Kirkegaard & Perry Laboratories, Inc.; Gaithersburg, Md.) was added to the cover slip and incubated for 30 min at 37° C. Peroxidase substrate solution was prepared by dissolving 10 mg of 3,3′-Diaminobenzidine (DAB; Sigma-Aldrich; St. Louis, Mo.) in 20 ml of PBS. After filtration through Whatman 113V filter paper (Whatman International Ltd.; Kent, United Kingdom), 40 μl of 30% H2O2 was added to the dissolved substrate. The final substrate solution was added to the cover slip and incubated at room temperature for 5 min. After rinsing with tap water, the cover slip was counterstained for 30 sec using Modified Harris Hematoxylin Solution (Sigma-Aldrich). The stained slide then was rinsed with tap water and observed under a microscope. Infection of the McCoy cells was also assessed by microscopic viewing of the bacteria in the media within the flask.
The infected McCoy cells in the flask were lysed using a 0.1% potassium chloride (KCl) solution on day 6 or 7 post-infection. The lysed material was used to re-infect fresh McCoy cell monolayers in flasks and Trac bottles. Briefly, after removing the media from the flask, a 0.1% KCl solution was added (5 ml per 25 cm^2) and incubated at 37° C. for 5-10 min. The KCl solution was removed from the flask, and 2 ml of sucrose potassium glutamate (SPG; 0.218M sucrose, 0.0038M KH2PO4, 0.0072M K2H PO4, and 0.0049M potassium glutamate) with 5% FBS was added. A cell scraper was then used to remove the cells from the flask. They were then lysed by forcing them through a syringe fitted with a 18 ga needle. […]

[2] = tested on: L. intracellularis isolate VP1; conditions: cysteine HCl 0.02%; for Bacteria in the Supernatant / Bacteria in the Supernatant: motility / Monolayer infection by staining: McCoy cells; for Monolayer infection by staining: day 6 or 7 post-infection; for Flagella in lysed material by fluorescent antibody (FITC) staining: hydrochloride
Protocol: In a separate set of experiments, L. intracellularis isolate VP1 (passage 23) was used to infect McCoy cell monolayers. The cells were then placed in a microaerophilic environment for 15 days. […] Flasks were re-fed with fresh media. […] Monolayer cells from the flask were lysed using water. Briefly, media from the flask was removed, and approximately 16 ml of sterile de-ionized water was added to the flask, followed by incubation at 37° C. for 10 min. […] The flask was then gently tapped against the palm of the hand, and a drop of the lysed material was observed under a microscope. […] A 4.25% NaCl solution was immediately added to bring the media to near normal physiological osmolarity.
The lysed material was centrifuged at 3200×g for 15 minutes. The resultant pellet was re-suspended in 41 ml of DMEM with 7% FBS, and was used to infect fresh McCoy cells. 35 ml of this lysed L. intracellularis infective material was added to one 175 cm^2 flask seeded with McCoy cells, and 0.5 ml to one seeded Trac bottle. Both the flask and the Trac bottle were evacuated with a vacuum at 15 psi of Hg, and then purged with pure hydrogen. 5 ml and 0.5 ml of the material were also used to infect McCoy cells seeded in a 25 cm^2 flask and a Trac bottle, respectively. Following evacuation with 15 psi of vacuum and a nitrogen flush, a 5× stock solution of cysteine HCl was added to the 25 cm^2 flask and the corresponding Trac bottle to a final concentration of 0.02%. All flasks and Trac bottles were incubated at 37° C. in an incubator containing 8.0% oxygen, 8.8% carbon dioxide and 83.2% nitrogen. Re-feeding was carried out as described above; the flask and Trac bottle which received cysteine HCl were also refed to the same final concentration (0.02%).
The infection was monitored on day 6 or 7 post-infection by immunoperoxidase staining of the corresponding cover slips as described above. Infection was also monitored by flourescent antibody staining. Briefly, cell lysate was collected on a Cytospin microscopic slide using a Cytofunnel sample chamber (Shandon Inc.; Pittsburg, Pa.) and centrifugation for 10 min at 1500 rpm. The sample was air dried and fixed in acetone for 30 sec. The smear was then covered with a 1:400 dilution of rabbit anti-L. intracellularis polyclonal serum and incubated at 37° C. for 30 min. The slide was washed gently with PBS, and a 1:20 dilution of fluorescein-labeled Goat anti-rabbit IgG (H+L; Kirkegaard & Perry Labs) was added to the smear, and the slide was incubated at 37° C. for 30 min. It was then observed under a fluorescent microscope.

[3] = tested on: L. intracellularis hamster isolate STR; conditions: McCoy cells; day 5 post-infection; cysteine hydrochloride 0.02%
Protocol: The cells were incubated overnight at 37° C. in 5% CO2, and were infected the next day with ˜5×10^5 bacteria per 25 cm^2flask. The infected flasks and the 48-well plates were evacuated at 15 psi of Hg vacuum and purged with hydrogen. A second set of flasks and corresponding Trac bottles were evacuated and purged with pure nitrogen, and cysteine hydrochloride was added to a final concentration of 0.02%. The infected flasks and plates were incubated in a bi-gas incubator at 8.0% CO2, 8.8% O2 and 83.2% N2. The flasks were re-fed with 50% volume of media on day 2 and day 5 post-infection, using DMEM with 5% FBS. A determination of the degree of infection was made on day 5 using immunoperoxidase staining. Lysis and re-infection were carried out based on the extent of infection as monitored by immunostaining of 48-well plate infections (routinely on day 7 post-infection). The media supernatant was collected from the flasks and centrifuged at 3500 g for 30 minutes. The supernatant was discarded and the pellet resuspended in SPG with 5% FBS. The monolayers were washed with PBS, followed by the addition of water and incubation at 37° C. for 15 min, at which time cells began detaching from the flask. The cells were then lysed by passaging 4 to 5 times through a syringe fitted with an 18 ga needle. The lysate was centrifuged at 350 g for 5 min to pellet the cell nuclei. […]

[4] = tested on: L. intracellularis (STR isolate); conditions: after 10 passages; McCoy cells; cysteine hydrochloride 0.02%, no hydrogen purge
Protocol: The bacteria were passaged by cell lysis. Supernatants and cell lysates were prepared from both flasks, as described earlier, and were used to infect fresh monolayers of McCoy cells seeded into 25 cm^2 or 75 cm^2 flasks at split ratios of 1:1 or 1:2, depending on the extent of infection as determined by immunostaining of the 48-well plate monolayers.
The 48-well plates infected with or without cysteine hydrochloride were fixed with 80% acetone on day 5 post-infection, and stained using the immunoperoxidase and immunofluorescence methods as described previously. The percent of McCoy cells infected using hydrogen gassing versus cysteine HCl was evaluated after each bacterial passage.

[5] = tested on: L. intracellularis swine isolate PHE/MN-001; conditions: p49, after 9 passages, McCoy cells, cysteine hydrochloride 0.02%
Protocol: Two 75 cm^2 flasks were seeded in a similar manner as described for the hamster STR isolate, starting with 6×10^5 McCoy cells in DMEM with 7% FBS, and incubated overnight at 37° C. in 5% CO2. […] The following day, the flasks were infected using the supernatant and cell lysate from L. intracellularis (PHE/MN-001 isolate)-infected McCoy cells at passage 40. One flask was evacuated, supplemented with 0.02% cysteine hydrochloride, purged with hydrogen, and placed in the incubator. The second flask was supplemented with 0.02% cysteine hydrochloride and placed in the incubator without first purging using hydrogen. The two 48-well plates were infected with L. intracellularis in parallel with the two flasks, and once again served as controls for monitoring the infection and for immunostaining. The flasks and 48-well plates were incubated in the incubator at 8.0% CO2, 8.8% O2 and 83.2% N2. The flasks were re-fed with 50% volume of media on day 2 and day 5 post-infection using DMEM with 5% FBS.
The bacteria were passaged by cell lysis, as described in earlier. […] The percent of McCoy cells infected with cysteine hydrochloride and hydrogen gassing, as compared with cysteine HCl alone, was evaluated after each bacterial passage.

[6] = passage P18, Treatment 2 = cysteine HCl 0.01% + β-NAD 5 mM + phosphatidylcholine 100 ng/ml
[7] = passage P18, Treatment 2 = cysteine HCl 0.01% + β-NAD + phosphatidylcholine
[8] = passage P19, Treatment 2 = cysteine HCl 0.01% + β-NAD + phosphatidylcholine

SMILES | Bacteria in the Supernatant [1, 6] | Monolayer infection by immunoperoxidase staining [1, 7] | Monolayer infection by immunoperoxidase staining [1, 8] | Bacteria in the Supernatant ([1]; passage P20) | Bacteria in the Supernatant ([2]; passage P25) | Bacteria in the Supernatant: motility ([2]; passage P25) | Monolayer infection by staining ([2]; passage P25) | Infection by immunoperoxidase staining of cover slips [3] | Culture expansion from one 25 cm^2 flask (increase) [4] [fold] | Monolayer infection by immunoperoxidase staining ([1]; passage P20, cysteine HCl 0.02% only) | Bacteria in the Supernatant ([1]; passage P21, cysteine HCl 0.02% only) | Monolayer infection by staining ([2]; passage P26) | L. intracellularis infection of McCoy cells compared to infection using hydrogen gassing [2] | Viability of L. intracellularis ([2]; inactive culture after 15 days in microaerophilic environment) | Flagella in lysed material by fluorescent antibody (FITC) staining ([2]; passage P25) | Flagella in lysed material by fluorescent antibody (FITC) staining ([2]; passage P25, listed as cysteine chloride) | Bacterial Counts (per ml supernatant) ([5]; Split Ratio 1:2) | Bacterial Counts (per ml supernatant) ([5]; Split Ratio 1:4)
[HH] [hydrogen, reference compound] | Positive | 60-70% | ≧80% | Highly positive | Slightly positive, | Normal motilty | Lesser infection (smaller and | about 20% | 4 | – | – | – | – | – | – | – | – | –
Cl.N[C@@H](CS)C(=O)O [cysteine hydrochloride] | Slightly positive | Little or no infection | 20% | – | Slightly positive, | highly motile | – | about 20% | 12 | 30-40% (larger foci of | Highly positive | 50-60% infection | enhanced | viability could be restored | elevated flagellar expression | showed large numbers of flagella. | 8.5 × 10^7 per ml supernatant | 5.8 × 10^7 per ml supernatant
